The source of these data is patent US11566029B2, “Pyrazolo[1,5-a]pyrimidine-5,7-diamine compounds as CDK inhibitors and their therapeutic use” (CANCER RESEARCH TECHNOLOGY LIMITED, priority 2014, dated 2023).

The GI50 is the concentration at which growth is held to half of that of the control. What is called IC50 is the concentration that gives 50% inhibition.

Counter-ions that a name gives are not always drawn. Like-named read-outs stand apart in the source and are kept apart here. Bounds are passed on as bounds.

One series relates to MCF7 cells. Put plainly: Cell growth inhibition assay (sulforhodamine B), MCF7. In kind it is cell-based. Particulars: Homo sapiens. Here is the method: (§1) All cells were purchased from the American Type Culture Collection (ATCC) and MCF7 cells were routinely cultured in Dulbecco's Modified Eagle's Medium (DMEM) supplemented with 10% fetal calf serum (FCS) (First Link) and HCT116 cells were routinely cultured in Roswell Park Memorial Instititute Medium (RPMI) supplemented with 10% FCS. Cell growth was assessed using a known sulforhodamine B assay (see, e.g., Skehan et al., 1990).
(§2) MCF-7 cells purchased from ATCC (USA) were routinely passaged in DMEM, supplemented with 10% FCS and HCT116 cells purchased from ATCC (USA) were routinely passaged in RPMI supplemented with 10% FCS and kept in a 37° C. incubator with 5% CO2. The growth assay for both cell lines was performed in the appropriate media using the exact same protocol as described here. For the growth assay, 5000 cells were seeded into each well of 96-well plates in DMEM containing 10% FCS. Test compounds prepared in DMSO were added to the medium at concentrations ranging from 0.00038-100 μM. The cells were incubated for a further 72 hours, at which time they were fixed by the addition of 100 μL/well of ice-cold 40% trichloroacetic acid (TCA). The plates were left for 1 hour at 4° C., washed in water and 100 μL of 0.4% (w/v) sulforhodamine (SRB; Sigma-Aldrich, UK) prepared in 1% acetic acid was added. Plates were washed in 1% acetic acid to remove excess SRB reagent, air dried, and bound dye was solubilized by the addition of 100 μL of 10 mM tris base. The plates were read at 492 nm using a plate reader.

The target of another series is T1, CDK6/cycD1 (Homo sapiens, UniProt Q00534).
T1 construct: purchased ProQinase GmbH
Put plainly: In vitro kinase assay (PKLight luciferase ATP readout), CDK6. In kind it is biochemical. Particulars: ATP at Km; three experiments. Here is the method:
(§3) Purified recombinant CDK1/cycA1, CDK2/cycA1, CDK4/cycD1, CDK5/p35NCK, CDK6/cycD1, CDK7/CycH/MAT1, and CDK9/CycT1 were purchased from ProQinase GmbH. Kinase assays were performed according to manufacturer's protocols. Rb-CTF (ProQinase GmbH) (cat number: 0040-0000-6) was used as the kinase substrate for CDK1, CDK2, CDK4, and CDK6 kinases. […] A luciferase assay (PKLight assay; Cambrex) was used to determine ATP remaining at the end of the kinase reaction, which provides a measure of kinase activity, according to the manufacturer's protocols.
(§4) Kinase assays were carried out by incubation of increasing amounts of test compound with purified recombinant CDK-Cyclin complex, followed by measurement of free ATP remaining in the reaction using the luciferase assay kit (PKLight, Cambrex) which therefore provided a measure of inhibition for the specific CDK.
(§5) 5 μL of 1× kinase buffer (Cell Signalling Technologies) was mixed with 200 ng CDK1, 200 ng CDK2, 50 ng CDK4, 100 ng CDK5, or 200 ng CDK6 with 5 μg Rb-CTF and 300 ng CDK7 or 200 ng CDK9 with 500 μM RNA Poll II CTD peptide. […] The mixture was incubated at 30° C. for 30 minutes. […] Then 40 μL of the luciferase mix was added to the reaction mixture which was incubated for a further 10 minutes at room temperature and measured using the Tecan Infinite 2000 plate reader. […]

Another series has as its target T2, CDK4/cycD1 (Homo sapiens, UniProt P11802).
T2 construct: purchased ProQinase GmbH
Put plainly: In vitro kinase assay (PKLight luciferase ATP readout), CDK4. In kind it is biochemical. As to conditions: ATP at Km; three experiments. The method, then:
as §3, §4, §5

Series [1] concerns human tumor cell lines (NCI60). Put plainly: NCI60 cancer cell line screen. The format is cell-based. The text has this: To extend the analysis to a more extensive set of cancer cell lines, PPDA-001 was submitted to the National Cancer Institute's Division of Cancer Treatment and Diagnosis in vitro screen of human tumor cell lines (http://dtp.nci.nih.gov/branches/btb/ivclsp.html).
Each line represents one cell line.

Series [2] relates to phospho-ER S118 in MCF-7 cells. Put plainly: Immunoblot of ER serine-118 phosphorylation in MCF-7 cells. In kind it is cell-based. As to conditions: 1 μmol/L, time course, FIG. 6. The method, then:
Cell lysates were prepared by the addition of RIPA buffer (Sigma-Aldrich, cat no: R0278). Immunoblotting was carried out using standard methods (see, e.g., Harlow & Lane, 1988, Antibodies: A Laboratory Manual, Cold Spring Harbor Laboratory Press, USA), with antibodies for the protein or phosphorylation mark indicated. β-actin was used as control for protein loading. The second antibody was HRP-coupled Goat anti Mouse or Rabbit IgG.
In general terms: A western blot detects proteins with antibodies after separation by electrophoresis.

The subject of a further series is HCT116 cells. Put plainly: Cell growth inhibition assay (sulforhodamine B), HCT116. In kind it is cell-based. As to conditions: Homo sapiens, HCT-116. The method, then:
as §1, §2

The next series has as its target T3, CDK5/p35NCK (Homo sapiens, UniProt Q00535).
T3 construct: purchased ProQinase GmbH
Put plainly: In vitro kinase assay (PKLight luciferase ATP readout), CDK5. In kind it is biochemical. As to conditions: ATP at Km; three experiments. Here is the method:
as §3, §4, §5

Another series addresses T4, CDK1/cycA1 (Homo sapiens, UniProt P06493).
T4 construct: purchased ProQinase GmbH
Put plainly: In vitro kinase assay (PKLight luciferase ATP readout), CDK1. The format is biochemical. The method, then:
as §3, §4
(§6) 5 μL of 1× kinase buffer (Cell Signalling Technologies) was mixed with 200 ng CDK1, 200 ng CDK2, 50 ng CDK4, 100 ng CDK5, or 200 ng CDK6 with 5 μg Rb-CTF and 300 ng CDK7 or 200 ng CDK9 with 500 μM RNA Poll II CTD peptide. […] The mixture was incubated at 30° C. for 30 minutes. The reaction is stopped with 20 μL of Stop Solution (provided in the PKLight kit) for 10 minutes at room temperature. Then 40 μL of the luciferase mix was added to the reaction mixture which was incubated for a further 10 minutes at room temperature and measured using the Tecan Infinite 2000 plate reader. GraphPad Prism Software was used to generate standard curve and determine the IC50's for each CDK.

The next series relates to HCT116 tumour xenograft. Put plainly: HCT116 tumour xenograft study. The format is in vivo, female Balb/c nu/nu mice.
The target of another series is T5, CDK2/cycA1 (Homo sapiens, UniProt P24941).
T5 construct: purchased ProQinase GmbH
Put plainly: In vitro kinase assay (PKLight luciferase ATP readout), CDK2. The format is biochemical. Particulars: ATP at Km; read-out: In vitro Kinase Inhibition CDK2 IC50. Here is the method:
as §3, §4, §6

A further series addresses T6, CDK7/CycH/MAT1 (Homo sapiens, UniProt P50613).
T6 construct: purchased ProQinase GmbH
Put plainly: In vitro kinase assay (PKLight luciferase ATP readout), CDK7. As to conditions: for IC50: ATP at Km, read-out: In vitro Kinase Inhibition CDK7 IC50; for Selectivity CDK1/CDK7: ratio of CDK1 IC50 to CDK7 IC50; for Selectivity CDK2/CDK7: ratio of CDK2 IC50 to CDK7 IC50. The format is biochemical. Here is the method: as §3, §4, §6

[3] abbreviates: 72 hours, SRB assay, read-out: Growth Inhibition, GI50 MCF7.
The mark [4] stands for this setting: 72 hours, SRB assay, read-out: Growth Inhibition, GI50 HCT116.
Where [5] appears, read: ATP at Km, read-out: In vitro Kinase Inhibition CDK1 IC50.

T6 sequence (P50613 whole entry): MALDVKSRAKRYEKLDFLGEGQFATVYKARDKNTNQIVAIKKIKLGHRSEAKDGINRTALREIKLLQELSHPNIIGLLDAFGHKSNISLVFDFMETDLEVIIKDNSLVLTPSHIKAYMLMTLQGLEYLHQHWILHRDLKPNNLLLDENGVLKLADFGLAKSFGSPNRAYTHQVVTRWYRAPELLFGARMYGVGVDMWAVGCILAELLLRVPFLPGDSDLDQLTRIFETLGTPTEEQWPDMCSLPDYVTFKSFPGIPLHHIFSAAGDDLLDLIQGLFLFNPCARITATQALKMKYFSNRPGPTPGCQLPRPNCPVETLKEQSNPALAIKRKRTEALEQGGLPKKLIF
T6 sequence (P51946 whole entry partner): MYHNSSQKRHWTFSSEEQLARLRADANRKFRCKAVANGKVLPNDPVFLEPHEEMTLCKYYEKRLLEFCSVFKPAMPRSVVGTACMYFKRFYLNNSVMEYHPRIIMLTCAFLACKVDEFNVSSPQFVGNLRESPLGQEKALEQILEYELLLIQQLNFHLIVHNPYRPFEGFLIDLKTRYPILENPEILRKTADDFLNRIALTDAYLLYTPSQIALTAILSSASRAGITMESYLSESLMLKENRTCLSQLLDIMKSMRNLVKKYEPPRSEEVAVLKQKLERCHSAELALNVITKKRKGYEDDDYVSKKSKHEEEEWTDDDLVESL
T6 sequence (P51948 whole entry partner): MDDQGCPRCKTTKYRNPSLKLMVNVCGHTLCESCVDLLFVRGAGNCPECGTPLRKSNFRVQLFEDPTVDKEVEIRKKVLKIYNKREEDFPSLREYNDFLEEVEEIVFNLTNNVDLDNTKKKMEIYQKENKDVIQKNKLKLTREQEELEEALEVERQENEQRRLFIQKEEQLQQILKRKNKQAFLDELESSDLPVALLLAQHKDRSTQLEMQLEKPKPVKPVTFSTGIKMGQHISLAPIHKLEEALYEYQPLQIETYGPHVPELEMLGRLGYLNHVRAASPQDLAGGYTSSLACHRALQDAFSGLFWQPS
T2 sequence (P11802 whole entry): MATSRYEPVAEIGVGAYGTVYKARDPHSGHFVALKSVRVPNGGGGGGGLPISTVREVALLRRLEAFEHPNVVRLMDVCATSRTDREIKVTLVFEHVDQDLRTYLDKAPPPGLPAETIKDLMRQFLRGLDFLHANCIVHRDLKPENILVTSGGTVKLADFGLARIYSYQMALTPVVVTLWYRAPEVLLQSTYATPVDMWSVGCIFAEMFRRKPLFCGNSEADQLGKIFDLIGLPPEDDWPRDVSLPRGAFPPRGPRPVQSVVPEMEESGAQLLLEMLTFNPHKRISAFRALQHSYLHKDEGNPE
T2 sequence (P24385 whole entry partner): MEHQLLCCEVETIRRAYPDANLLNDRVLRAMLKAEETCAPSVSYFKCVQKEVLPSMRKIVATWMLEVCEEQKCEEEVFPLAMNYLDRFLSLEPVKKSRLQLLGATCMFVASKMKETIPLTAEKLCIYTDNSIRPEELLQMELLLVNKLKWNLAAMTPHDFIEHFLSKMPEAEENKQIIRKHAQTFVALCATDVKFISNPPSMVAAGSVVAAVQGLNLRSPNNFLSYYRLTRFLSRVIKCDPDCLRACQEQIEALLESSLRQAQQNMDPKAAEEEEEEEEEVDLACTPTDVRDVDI
T3 sequence (Q00535 whole entry): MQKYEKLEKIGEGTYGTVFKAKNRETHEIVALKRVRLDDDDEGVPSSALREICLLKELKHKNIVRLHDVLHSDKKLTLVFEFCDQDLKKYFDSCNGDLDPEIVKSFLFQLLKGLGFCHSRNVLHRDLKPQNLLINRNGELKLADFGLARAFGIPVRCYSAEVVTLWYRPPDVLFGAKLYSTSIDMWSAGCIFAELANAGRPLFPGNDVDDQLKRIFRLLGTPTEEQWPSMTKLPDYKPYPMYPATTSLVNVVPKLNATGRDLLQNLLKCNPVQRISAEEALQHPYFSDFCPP
T3 sequence (Q15078 whole entry partner): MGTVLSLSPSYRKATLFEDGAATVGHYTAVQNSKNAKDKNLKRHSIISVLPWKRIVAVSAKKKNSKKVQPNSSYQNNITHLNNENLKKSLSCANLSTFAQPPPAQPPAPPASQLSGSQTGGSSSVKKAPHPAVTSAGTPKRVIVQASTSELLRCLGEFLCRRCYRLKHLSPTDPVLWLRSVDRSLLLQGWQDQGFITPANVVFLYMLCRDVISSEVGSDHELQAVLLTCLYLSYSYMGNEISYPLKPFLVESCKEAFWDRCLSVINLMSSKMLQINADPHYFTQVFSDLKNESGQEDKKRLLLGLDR
T1 sequence (Q00534 whole entry): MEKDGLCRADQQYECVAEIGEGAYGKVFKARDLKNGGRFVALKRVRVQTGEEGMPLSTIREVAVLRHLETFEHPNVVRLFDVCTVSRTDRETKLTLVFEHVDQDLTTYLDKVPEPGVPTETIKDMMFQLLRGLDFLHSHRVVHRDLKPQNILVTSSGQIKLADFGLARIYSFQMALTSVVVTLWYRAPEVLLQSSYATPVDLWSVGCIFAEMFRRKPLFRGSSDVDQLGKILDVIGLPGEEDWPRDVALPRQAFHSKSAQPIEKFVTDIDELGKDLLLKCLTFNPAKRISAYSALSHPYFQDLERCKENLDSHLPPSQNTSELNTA
T1 sequence (P24385 whole entry partner): as the sequence (P24385 whole entry partner) above

In the case of `CC(C)c1cnn2c(NCc3ccccc3)cc(NC[C@H]3CCNC[C@@H]3O)nc12` [PPDA-001, (3R,4R)-4-(((7-(Benzylamino)-3-isopropylpyrazolo[1,5-a]pyrimidin-5-yl)amino)methyl)piperidin-3-ol hydrochloride], the GI50 was 960 nM in the series with MCF7 cells (setting [3]); less than 1000 nM in the series with MCF7 cells (read-out: GI50, breast (MCF7) cancer cell line); 280 nM in [1] (mean of all 60 cell lines, read-out: mean GI50 over 60 cancer cell lines); 40 to 2100 nM in series [1] (range over all 60 cell lines, read-out: range GI50 over 60 cancer cell lines); 630 nM in the series on HCT116 cells (setting [4]); less than 1000 nM in the series on HCT116 cells (read-out: GI50, colorectal (HCT116) cancer cell line). Moreover, the IC50 on CDK6/cycD1 turned out to be 32100 nM; at CDK4/cycD1 it was 42100 nM; against CDK5/p35NCK, 9000 nM; at CDK1/cycA1 it was 1520 nM. Moreover, the “phosphorylation of ER at serine-118 (phospho-ER S118)” value in series [2] is recorded as “inhibits phosphorylation of ER at serine-118”. Also, the “reduction in tumor growth” value in the series with HCT116 tumour xenograft (50 mg/kg/bi-daily and 100 mg/kg once daily PO, compared with the control arms) is on record as 65%. The “Animal weight (percent body weight)” value in the series on HCT116 tumour xenograft (PPDA-001 treatment arms (50 mg/kg bi-daily, 100 mg/kg once daily, PO), over the course of the study, vehicle 98%) worked out at 92%.

On to `CC(C)c1cnn2c(NCC3CCCCC3)cc(NCC3(O)CCNCC3)nc12` [PPDA-013], for which the IC50 at CDK2/cycA1 came out at 344 nM; on CDK7/CycH/MAT1 it was 80 nM; on CDK1/cycA1 (setting [5]), 330 nM. For the same compound, the GI50 with MCF7 cells (setting [3]) came to 1200 nM; in the series with HCT116 cells (setting [4]), 1100 nM. In addition, the “Selectivity CDK1/CDK7” value on CDK7/CycH/MAT1 amounted to 4.1 fold. In addition, on CDK7/CycH/MAT1, the “Selectivity CDK2/CDK7” value is listed as 4.3 fold.

For `CC(C)c1cnn2c(NCc3ccccc3)cc(N[C@@H]3CN[C@H](CO)C3)nc12` [PPDA-026, ((2S,4S)-4-(7-(Benzylamino)-3-iso-propylpyrazolo[1,5-a]pyrimidin-5-ylamino)pyrrolidin-2-yl)methanol hydrochloride], the 50% inhibitory concentration (IC50) at CDK2/cycA1 was found to be 203 nM; at CDK7/CycH/MAT1 it was 89 nM; on CDK1/cycA1 (setting [5]), 162 nM. For the same compound, the 50% growth inhibitory concentration (GI50) came out at 2000 nM in the series on MCF7 cells (setting [3]) and 10700 nM in the series with HCT116 cells (setting [4]). Also, the “Selectivity CDK1/CDK7” value on CDK7/CycH/MAT1 was determined as 1.8 fold. Also, at CDK7/CycH/MAT1, the “Selectivity CDK2/CDK7” value turned out to be 2.3 fold.

For `CC(C)c1cnn2c(Nc3ccc(N4CCN(C)CC4)cc3)cc(NC[C@H]3CCNC[C@@H]3O)nc12` [PPDA-007, (3R,4R)-4-((3-iso-Propyl-7-(4-(4-methylpiperazin-1-yl)phenylamino)pyrazolo[1,5-a]pyrimidin-5-ylamino)methyl)piperidin-3-ol hydrochloride], the IC50 on CDK2/cycA1 is 503 nM; at CDK7/CycH/MAT1 it was 461 nM; at CDK1/cycA1 (setting [5]), 1150 nM. The GI50 with MCF7 cells (setting [3]) stood at 2100 nM; in the series with HCT116 cells (setting [4]), 4100 nM. The “Selectivity CDK1/CDK7” value at CDK7/CycH/MAT1 came out at 2.5 fold. Moreover, at CDK7/CycH/MAT1, the “Selectivity CDK2/CDK7” value amounted to 1.1 fold.

In the case of `CC(C)c1cnn2c(NCc3ccncc3)cc(NCC3(O)CCNCC3)nc12` [PPDA-010, 4-(((3-iso-Propyl-7-((pyridin-4-ylmethyl)amino)pyrazolo[1,5-a]pyrimidin-5-yl)amino)methyl)piperidin-4-ol hydrochloride], the values for the IC50 at CDK2/cycA1, on CDK7/CycH/MAT1 and at CDK1/cycA1 (setting [5]) were 115 nM, 788 nM and 3620 nM, respectively. Also, the GI50 was 11900 nM in the series with MCF7 cells (setting [3]) and 25000 nM with HCT116 cells (setting [4]). The “Selectivity CDK1/CDK7” value on CDK7/CycH/MAT1 is 4.6 fold. The “Selectivity CDK2/CDK7” value at CDK7/CycH/MAT1 came out at 0.1 fold.

Turning to `CC(C)c1cnn2c(NC3CCN(S(=O)(=O)c4ccc(F)cc4)CC3)cc(NC[C@H]3CCNC[C@@H]3O)nc12` [PPDA-006], the IC50 at CDK2/cycA1 is 178 nM; at CDK7/CycH/MAT1, 40 nM; at CDK1/cycA1 (setting [5]), 405 nM. Moreover, the GI50 with MCF7 cells (setting [3]) came to 8400 nM; with HCT116 cells (setting [4]), 10000 nM. For the same compound, the “Selectivity CDK1/CDK7” value on CDK7/CycH/MAT1 was found to be 10 fold. At CDK7/CycH/MAT1, the “Selectivity CDK2/CDK7” value was found to be 4.5 fold.
